Reference: patent US4139628A, “Amino-spiro[oxa(or thia)cycloalkane-penam]-carboxylic acid derivatives” (U C B, Societe Anonyme, priority 1977, dated 1979)

Columns and labels:
beta-lactamase P 99 = biological target: T1, beta-lactamase P 99 (Enterobacter cloacae, UniProt P05364); experiment: hydrolysis kinetics in the presence of beta-lactamase (residual activity); format: biochemical, Gram-negative bacteria; details: as compared with ampicillin
T1 construct: source not detailed

[1] = system: Escherichia coli K 12-44 S; format: cell-based; details: E.COLI K 12-44S; relative to ampicillin = 1
Protocol: It is very sensitive to penicillins due to hyperpermeability.
(§1) The products to be tested are introduced in increasing concentrations into a gelose culture medium in Petri dishes. A multiple inoculator is used to deposit simultaneously drops (10 microliters) of inoculum (suspension of about 10^5 bacteria per ml) onto the surface of the medium. After incubation at 37° C. for 24 hours, the growth of the bacteria is observed. By definition, the MIC is expressed as the minimum concentration of the tested compounds which inhibits the multiplication of the bacteria. In the results which follow, however, the MIC is given as being equal to 1 for the reference compounds and the activity figures given for the tested compounds of general formula (I) are, therefore, relative values. This presentation of the results is more correct and the most reproducible, because, for one and the same bacterial strain, different MIC values can be observed if they are measured at different times. This is bound up with the "seasonal" variations in the strains and their nutrient medium.

beta-lactamase TEM = experiment: hydrolysis kinetics in the presence of beta-lactamase (residual activity); format: biochemical, Gram-negative bacteria; details: after incubation for 6 minutes
[2] = system: Escherichia coli B AMPI-R; experiment: minimum inhibitory concentration (MIC), gelose culture medium in Petri dishes; format: cell-based; details: relative MIC (ampicillin = 1) on E. COLI B versus its beta-lactamase hyperproducer mutant
Protocol: This is a mutant of the preceding strain, which we have produced.
as §1

T1 sequence (P05364 21-381): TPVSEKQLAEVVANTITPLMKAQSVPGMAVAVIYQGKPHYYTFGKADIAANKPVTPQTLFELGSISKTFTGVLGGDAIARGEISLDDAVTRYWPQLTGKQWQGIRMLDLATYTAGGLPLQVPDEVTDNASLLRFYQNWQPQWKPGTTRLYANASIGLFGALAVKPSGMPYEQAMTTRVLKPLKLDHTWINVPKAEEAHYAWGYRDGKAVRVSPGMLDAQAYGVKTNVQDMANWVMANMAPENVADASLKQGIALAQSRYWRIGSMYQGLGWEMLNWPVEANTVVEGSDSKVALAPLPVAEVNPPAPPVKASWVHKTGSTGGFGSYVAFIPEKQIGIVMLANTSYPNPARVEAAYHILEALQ

Row | Compound | resistance to beta-lactamase, in words (beta-lactamase P 99) | MIC, relative value [1] | Remaining activity as percentage (beta-lactamase TEM) | difference between the activity on E. COLI B and on E. COLI B Ampi-R (factor) [2]
1 | NC(C(=O)NC1C(=O)N2C1SC1(CC[S+]([O-])CC1)C2C(=O)O)c1ccccc1 (stereo not drawn) [Compound J, 6-(2"-amino-2"-phenylacetamido)-2',3',5',6'-tetrahydro-spiro[penam-2,4'-[4H]thiopyran]-3-carboxylic acid 1'-oxide] | No change in behavior |  |  | 
2 | N[C@@H](C(=O)NC1C(=O)N2C1SC1(CCOCC1)C2C(=O)O)c1ccccc1 (single isomer, unassigned) [Compound B, 6-(2"-amino-2"-phenylacetamido)-2',3',5',6'-tetrahydro-spiro[penam-2,4'-[4H]pyran]-3-carboxylic acid] |  | 1.9 | 87% | 3.5
3 | NC(C(=O)NC1C(=O)N2C1SC1(CCSCC1)C2C(=O)O)c1ccccc1 (stereo not drawn) [Compound F, 6-(2"-amino-2"-phenylacetamido)-2',3',5',6'-tetrahydro-spiro[penam-2,4'-[4H]thiopyran]-3-carboxylic acid] | increased resistance | 15 |  | 
